Data set [1] concerns P388. The data set can be described thus: Cytotoxicity against mouse P388 cells assessed as inhibition of cell growth incubated for 72 hrs by MTT assay. In kind it is functional, cell-based. The conditions noted are these: P388, 72 h. A general note: Tetrazolium assays rely on reduction of a dye to a coloured formazan, in cell work by metabolically active cells.
Data set [2] relates to L1210. The data set can be described thus: Cytotoxicity against mouse L1210 cells assessed as reduction in cell growth measured after 72 hrs by MTT assay. In kind it is functional, cell-based. The note with it: L1210, 72 h.
For data set [3], the system named is HL-60. In words: Cytotoxicity against human HL-60 cells assessed as reduction in cell growth measured for 72 hrs by MTT assay. It counts as functional, cell-based. The conditions noted are these: HL-60, 72 h.
Data set [4] is described as follows: Cytotoxicity against Sf9 cells assessed as inhibition of cell growth measured after 24 hrs by MTT assay. It counts as toxicity, cell-based. The note with it: Spodoptera frugiperda.
For data set [5], the system named is HGC-27. The data set can be described thus: Cytotoxicity against human HGC-27 cells assessed as reduction in cell viability. It counts as functional, cell-based.
Data set [6] deals with NCI-H460. In words: Growth inhibition of human NCI-H460 cells. It counts as functional.
Data set [7] has as its system P388. In words: Anticancer activity against mouse P388 cells assessed as inhibition of cell growth. In kind it is functional. The conditions noted are these: read-out: ED50 (the source's name).
The test system of data set [8] is DU-145. In words: Growth inhibition of human DU-145 cells. In kind it is functional.
Data set [9] has as its system SF-268. In words: Growth inhibition of human SF-268 cells. It counts as functional.
The test system of data set [10] is BXPC-3. In words: Growth inhibition of human BXPC-3 cells assessed as reduction in cell viability measured after 3 days by CCK-8 assay. It counts as functional. The conditions noted are these: BXPC-3, 72 h, time 3 day.
Data set [11] deals with FaDu. The data set can be described thus: Growth inhibition of human FaDu cells. It counts as functional.
Data set [12] has as its system MCF7. In words: Growth inhibition of human MCF7 cells. In kind it is functional.
In data set [13] the test system is KM-20L2. In words: Growth inhibition of human KM-20L2 cells. It counts as functional.
In data set [14] the test system is SK-N-SH. In words: Growth inhibition of human SK-N-SH cells. In kind it is functional.
The test system of data set [15] is SW-1736. In words: Growth inhibition of human SW-1736 cells. It counts as functional.
For data set [16], the system named is HeLa. In words: Cytotoxicity against human HeLa cells. In kind it is functional, cell-based.
Data set [17] concerns MCF7. In words: Cytotoxicity against human MCF7 cells. In kind it is functional, cell-based.
In data set [18] the test system is HCT-116. In words: Cytotoxicity against human HCT-116 cells. In kind it is functional, cell-based.
In data set [19] the test system is HepG2. The data set can be described thus: Cytotoxicity against human HepG2 cells. It counts as functional, cell-based.
Data set [20] deals with HEp-2. The data set can be described thus: Cytotoxicity against human HEp-2 cells assessed as reduction in cell growth. In kind it is functional, cell-based.
For data set [21], the system named is Bel-7402. In words: Anticancer activity against human Bel-7402 cells assessed as reduction in cell growth measured for 24 hrs by MTT assay. It counts as functional, cell-based. The note with it: Bel-7402, 24 h.
The subject of data set [22] is HeLa. In words: Antitumor activity against human HeLa cells assessed as inhibition of cell growth by MTT assay. It counts as functional, cell-based.
For data set [23], the system named is HL-60. In words: Anticancer activity against human HL-60 cells assessed as inhibition of cell growth measured after 24 hrs by CCK-8 assay. In kind it is functional, cell-based. The conditions noted are these: HL-60, 24 h.
Data set [24] in a line: Antitumor activity against human A375.S2 cells assessed as cell growth inhibition. It counts as functional, cell-based.
In data set [25] the test system is A549. The data set can be described thus: Anticancer activity against human A549 cells assessed as reduction in cell growth. It counts as functional, cell-based.
Data set [26] relates to P388. The data set can be described thus: Antitumor activity against mouse P388 cells assessed as cell growth inhibition. In kind it is functional, cell-based.
Data set [27] has as its system PANC-1. In words: Cytotoxicity against human PANC-1 cells assessed as reduction in cell viability. In kind it is functional, cell-based.
For data set [28], the system named is HeLa. In words: Cytotoxicity against human HeLa cells assessed as reduction in cell growth measured after 24 hrs by MTT assay. It counts as functional, cell-based.
For data set [29], the system named is A-375. In words: Cytotoxicity against human A-375 cells assessed as reduction in cell viability by CCK-8 assay. In kind it is functional, cell-based.
The test system of data set [30] is HeLa. The data set can be described thus: Cytotoxicity against human HeLa cells assessed as reduction in cell growth measured after 72 hrs by MTT assay. It counts as functional, cell-based.
Data set [31] relates to HepG2. The data set can be described thus: Cytotoxicity against human HepG2 cells assessed as reduction in cell growth incubated for 48 hrs by CCK-8 assay. In kind it is functional, cell-based. The conditions noted are these: HepG2, 48 h.
Data set [32] has as its system MDA-MB-231. In words: Cytotoxicity against human MDA-MB-231 cells assessed as reduction in cell growth incubated for 48 hrs by CCK-8 assay. In kind it is functional, cell-based. The note with it: MDA-MB-231, 48 h.
Data set [33] concerns A549. The data set can be described thus: Cytotoxicity against human A549 cells assessed as inhibition of cell growth incubated for 48 hrs by MTT assay. It counts as functional, cell-based. The conditions noted are these: A549, 48 h.
For data set [34], the system named is A549. The data set can be described thus: Antiproliferative activity against human A549 cells assessed as reduction in cell viability incubated for 72 hrs by SRB assay. It counts as functional, cell-based. The conditions noted are these: A549, 72 h. On the technique in general: The SRB assay estimates cell density from bound dye.
Data set [35] concerns HT-29. In words: Antiproliferative activity against human HT-29 cells assessed as reduction in cell viability incubated for 72 hrs by SRB assay. It counts as functional, cell-based. The note with it: HT-29, 72 h.
Data set [36] concerns MDA-MB-231. In words: Antiproliferative activity against human MDA-MB-231 cells assessed as reduction in cell viability incubated for 72 hrs by SRB assay. In kind it is functional, cell-based. The conditions noted are these: MDA-MB-231, 72 h.

pIC50: −log10 of the molar value. Values after ≈ are worked out from the molar mass of the structure shown.

By pIC50 is commonly meant the IC50 on a negative log10 scale, so that one unit is a factor of ten. A word on the IC50: it is the concentration at which inhibition is half-maximal. Usually GI50 stands for the concentration that inhibits growth by half.

Regarding `CSC12NC(=O)C(Cc3ccc(OCC=C(C)C)cc3)(NC1=O)[C@H]1C(=O)O[C@H](C)C/C=C/C(=O)O[C@H](C)C[C@@H](O)C(=O)[C@H]12` (stereo partly specified), the negative-log IC50 (pIC50) is 5.17 in [1], 4.93 in data set [2] and 5.66 in data set [3].
As for `CS[C@@]1(Cc2ccccc2)NC(=O)[C@](O)(Cc2ccccc2)NC1=O`, the IC50 at 24 h in data set [4] was 0.7 µM.
As to `C=CC(C)(C)c1[nH]c2ccccc2c1/C=C1\NC(=O)[C@@H]2CCCN2C1=O`, the negative-log IC50 (pIC50) in data set [5] is 5.34.
With `CN1C(=O)N[C@H]2[C@@H]3NC(=O)c4ccc(Br)n4[C@@H]3C[C@]21O` [AGELASTATIN A], the GI50 was found to be 0.036 µg/mL (≈ 0.106 µM) in [6]; 0.056 µg/mL (≈ 0.164 µM) in [8]; 0.038 µg/mL (≈ 0.111 µM) in data set [9]; 0.089 µg/mL (≈ 0.261 µM) in [10]; 0.24 µg/mL (≈ 0.703 µM) in [11]; 0.033 µg/mL (≈ 0.0967 µM) in data set [12]. In addition, the GI50 is 0.036 µg/mL (≈ 0.106 µM) in data set [13], 0.042 µg/mL (≈ 0.123 µM) in data set [14] and 0.12 µg/mL (≈ 0.352 µM) in [15]. In addition, the EC50 in [7] came to 0.052 µg/mL (≈ 0.152 µM).
For the molecule `CC(C)/C=C1\NC(=O)[C@H](CCC(N)=O)n2c1nc1ccccc1c2=O` [AURANTIOMIDE C], the IC50 in data set [16] is 18.5 µg/mL (≈ 54.3 µM); in data set [17] it was 20.5 µg/mL (≈ 60.2 µM); in data set [18], 9.51 µg/mL (≈ 27.9 µM); in data set [19], 23.9 µg/mL (≈ 70.3 µM); in data set [20], 37.6 µg/mL (≈ 111 µM).
As to `CC(C)=CCC/C(C)=C/COc1ccc(C[C@@H]2NC(=O)[C@H](C)NC2=O)cc1`, the pIC50 in data set [21] is 5.49; in data set [22], 5.47; in [23] it was 5.76; in [24], 5.34; in data set [25], 5.86; in data set [26] it was 5.54.
Take `COc1ccc([C@H]2SS[C@@]34C[C@]5(O)[C@H](Cl)C=C[C@@H](O)[C@@H]5ON3C(=O)[C@@H]2NC4=O)c(O)c1OC`: the pIC50 in data set [27] was 7.70.
For the molecule `O=C1N[C@@H](C[C@@]2(O)c3ccccc3N3C(=O)C[C@@H](c4ccccc4)N[C@H]32)C(=O)N[C@H]1Cc1ccccc1`, in data set [28], the IC50 came to 8.4 µg/mL (≈ 16.9 µM).
With `CC(C)C[C@@H]1NC(=O)[C@@H]2C[C@@]3([C@@]45C[C@H]6C(=O)N[C@@H](Cc7ccccc7)C(=O)N6[C@@H]4Nc4ccccc45)c4ccccc4N[C@H]3N2C1=O`, the pIC50 in data set [29] is 4.99.
For the molecule `CC(C)[C@H]1C(=O)N2[C@@H]3N4c5ccccc5[C@]3(C[C@@H]3[C@@]5(C)CCCC(C)(C)[C@@H]5CC[C@]34C)C[C@H]2C(=O)N1C`, in data set [30], the negative logarithm of the IC50 (pIC50) is 4.78.
On to `COc1ccc2c(c1)NC(=O)[C@]21[C@H](C=C(C)C)N2C(=O)[C@@H]3CCCN3C(=O)[C@]2(O)[C@H]1O`, for which the pIC50 in data set [31] is 4.85; in [32], 4.45.
In the case of `CN1C[C@@H](c2c[nH]c3cc(Br)ccc23)N(C)C[C@@H]1c1c[nH]c2ccccc12`, the pIC50 in [33] is 5.39; in data set [34] it was 5.33; in [35] it was 5.32; in [36] it was 5.12.

The values above are taken from ChEMBL document CHEMBL5500324, “The potential of marine-derived piperazine alkaloids: Sources, structures and bioactivities” (Eur J Med Chem, 2024).
